These results are taken from patent US20230025537A1, “MIXTURE COMPRISING HYDROGENATED SOYBEAN OIL AND THYMOL” (DSM IP Assets B.V., priority 2019, published 2023).

Values after ≈ are worked out from the molar mass of the structure shown. Read-outs that look alike come from different tables or passages of the source.

The test system of assay [1] is E. coli K88+. The assay is described as follows: MIC by two-fold broth dilution method. In kind it is cell-based. The settings on record: Escherichia coli, 24 h, read-out: MIC values, Escheria coli K88^+. Background: In broth dilution the organism is exposed to a series of concentrations in liquid medium.
The test system of assay [2] is S. choleraesuis. Briefly: MIC by two-fold broth dilution method. In kind it is cell-based. The settings on record: Salmonella enterica, 24 h, read-out: MIC values, Salmonella choleraesius.
Assay [3] deals with Cl. perfringens. Briefly: microbe, parasite or virus in culture. The format is cell-based. The settings on record: Clostridium perfringens, 24 h, read-out: MIC values, Clostrisium perfringens.
Assay [4] deals with E. coli K88+. In kind it is cell-based, Escherichia coli K88+. Particulars: individually.

For the compound `C=CCc1ccc(O)c(OC)c1` [Eugenol, eugenol], the MIC in assay [1] is 2500 µM (≈ 411 µg/mL); in assay [2] it was 2500 µM (≈ 411 µg/mL); in assay [3], 4000 µM (≈ 657 µg/mL). In addition, the “Lag phase (λ)” value in assay [4] (dosage 0.25 mmol/L) is reported as 1.77; in assay [4] (dosage 0.5 mmol/L) it was 1.91.
Consider `Cc1ccc(C(C)C)c(O)c1` [Thymol, thymol], for which the MIC in assay [1] was determined as 1500 µM (≈ 225 µg/mL); in assay [2], 1000 µM (≈ 150 µg/mL); in assay [3] it was 1000 µM (≈ 150 µg/mL). Also, the figures for the “Lag phase (λ)” value in assay [4] (dosage 0.25 mmol/L) and in assay [4] (dosage 0.5 mmol/L) were 1.66 and 1.65, respectively.
